Tested on: cancer cell line MDA-MB-468
Assay: Combination index with known cancer drugs against proliferation (Calcusyn software)
Format: cell-based
From the text: A combination index of less than 0.1 indicates very strong synergy; a combination index of 0.1 to 0.3 indicates strong synergism; a combination index of 0.3 to 0.7 indicates synergism; a combination index of 0.7 to 0.85 indicates moderate synergism; a combination index of 0.85 to 0.9 indicates slight synergism and a combination index of 0.9 to 1.1 indicates only very slight synergism, said combination being close to merely additive.
The combination index may be calculated using calcusyn software.
Evidence of synergy was determined by calculation of the combination index using Calcusyn software.
The MTT assay was used initially to determine the anti-proliferative activity of the test compounds. In the MTT assay a yellow thiazolyl blue tetrazolium bromide salt (MTT) is reduced, in metabolically active cells, to form insoluble purple formazan crystals which are solubilised by the addition of dimethyl sulphoxide (DMSO). Absorbance readings can then be determined spectrophotometrically and a relationship established between control untreated cells and drug treated cells enabling the quantification of anti-proliferative changes as a result of drug treatment (Mosmann, 1983).
Wells containing medium only were used as blanks. Following the attachment period, cells were treated with appropriate drug concentrations (20 μl added per well). 40 mg/ml stock drug solutions, in DMSO, were stored at −20° C. and on the day of drug treatment working solutions of 4 mg/ml were prepared in medium which was further diluted to achieve final drug dilution volumes of 20 μl. Initial screening was determined over a concentration range of 1-200 μg/ml. For potent compounds the assay was repeated over a narrower concentration range to determine accurate IC50 values. Cells were exposed to drug for 96 h continual exposure (37° C., 5% CO2). Following the 96 h incubation, 50 μl MTT solution (1 g MTT/500 ml PBS) was added per well and the plates were further incubated for 4 h (37° C., 5% CO2). After incubation the MTT and medium was removed from the wells and 100 μl DMSO added per well. Plates were agitated on an orbital mixer platform (Stuart Scientific) for 10 minutes. Absorbance was measured at 570 nm on a Biotrak II (Amersham Bioscience) plate reader. IC50 values were calculated comparing control and drug treated cells.

CC(C)CC(NC(=O)c1ccc2c(c1O)C(=O)OC(C)C2)C(=O)OC(C)(C)C (mixture of isomers) [ALM-55, Leucine Tert-Butyl Ester Amide]
Combination Index (Cisplatin 1 × 10^−2 mol/L, ALM compound 0.1 μg/ml): 0.003
Combination Index (Cisplatin 1 × 10^−2 mol/L, ALM compound 0.5 μg/ml): 0.009
Combination Index (Cisplatin 1 × 10^−2 mol/L, ALM compound 1.0 μg/ml): 0.023
Combination Index (Cisplatin 1 × 10^−2 mol/L, ALM compound 5.0 μg/ml): 0.11
Combination Index (Cisplatin 1 × 10^−3 mol/L, ALM compound 0.1 μg/ml): 0.031
Combination Index (Cisplatin 1 × 10^−3 mol/L, ALM compound 0.5 μg/ml): No
Combination Index (Cisplatin 1 × 10^−3 mol/L, ALM compound 1.0 μg/ml): No
Combination Index (Cisplatin 1 × 10^−3 mol/L, ALM compound 5.0 μg/ml): No
Combination Index (Cisplatin 1 × 10^−4 mol/L, ALM compound 0.1 μg/ml): No
Combination Index (Cisplatin 1 × 10^−4 mol/L, ALM compound 0.5 μg/ml): No
Combination Index (Cisplatin 1 × 10^−4 mol/L, ALM compound 1.0 μg/ml): No
Combination Index (Cisplatin 1 × 10^−4 mol/L, ALM compound 5.0 μg/ml): No
Combination Index (Cisplatin 1 × 10^−5 mol/L, ALM compound 0.1 μg/ml): No
Combination Index (Cisplatin 1 × 10^−5 mol/L, ALM compound 0.5 μg/ml): No
Combination Index (Cisplatin 1 × 10^−5 mol/L, ALM compound 1.0 μg/ml): No
Combination Index (Cisplatin 1 × 10^−5 mol/L, ALM compound 5.0 μg/ml): No
Combination Index (Cisplatin 1 × 10^−6 mol/L, ALM compound 0.1 μg/ml): No
Combination Index (Cisplatin 1 × 10^−6 mol/L, ALM compound 0.5 μg/ml): No
Combination Index (Cisplatin 1 × 10^−6 mol/L, ALM compound 1.0 μg/ml): No
Combination Index (Cisplatin 1 × 10^−6 mol/L, ALM compound 5.0 μg/ml): No
Combination Index (Cisplatin 1 × 10^−7 mol/L, ALM compound 0.1 μg/ml): 0.431
Combination Index (Cisplatin 1 × 10^−7 mol/L, ALM compound 0.5 μg/ml): No
Combination Index (Cisplatin 1 × 10^−7 mol/L, ALM compound 1.0 μg/ml): No
Combination Index (Cisplatin 1 × 10^−7 mol/L, ALM compound 5.0 μg/ml): No
Combination Index (Cisplatin 1 × 10^−8 mol/L, ALM compound 0.1 μg/ml): 0.155
Combination Index (Cisplatin 1 × 10^−8 mol/L, ALM compound 0.5 μg/ml): No
Combination Index (Cisplatin 1 × 10^−8 mol/L, ALM compound 1.0 μg/ml): No
Combination Index (Cisplatin 1 × 10^−8 mol/L, ALM compound 5.0 μg/ml): No
Combination Index (Cisplatin 1 × 10^−9 mol/L, ALM compound 0.1 μg/ml): 0.093
Combination Index (Cisplatin 1 × 10^−9 mol/L, ALM compound 0.5 μg/ml): 0.531
Combination Index (Cisplatin 1 × 10^−9 mol/L, ALM compound 1.0 μg/ml): No
Combination Index (Cisplatin 1 × 10^−9 mol/L, ALM compound 5.0 μg/ml): No
Combination Index (Doxorubicin 1 × 10^−4 mol/L, ALM compound 0.1 μg/ml): No
Combination Index (Doxorubicin 1 × 10^−4 mol/L, ALM compound 0.5 μg/ml): No
Combination Index (Doxorubicin 1 × 10^−4 mol/L, ALM compound 1.0 μg/ml): No
Combination Index (Doxorubicin 1 × 10^−4 mol/L, ALM compound 5.0 μg/ml): No
Combination Index (Doxorubicin 1 × 10^−5 mol/L, ALM compound 0.1 μg/ml): 0.284
Combination Index (Doxorubicin 1 × 10^−5 mol/L, ALM compound 0.5 μg/ml): No
Combination Index (Doxorubicin 1 × 10^−5 mol/L, ALM compound 1.0 μg/ml): 0.344
Combination Index (Doxorubicin 1 × 10^−5 mol/L, ALM compound 5.0 μg/ml): 0.969
Combination Index (Etoposide 1 × 10^−4 mol/L, ALM compound 0.1 μg/ml): 0.312
Combination Index (Etoposide 1 × 10^−4 mol/L, ALM compound 0.5 μg/ml): 0.142
Combination Index (Etoposide 1 × 10^−4 mol/L, ALM compound 1.0 μg/ml): 0.473
Combination Index (Etoposide 1 × 10^−4 mol/L, ALM compound 5.0 μg/ml): 0.335
Combination Index (Etoposide 1 × 10^−5 mol/L, ALM compound 0.1 μg/ml): No
Combination Index (Etoposide 1 × 10^−5 mol/L, ALM compound 0.5 μg/ml): 1.136
Combination Index (Etoposide 1 × 10^−5 mol/L, ALM compound 1.0 μg/ml): No
Combination Index (Etoposide 1 × 10^−5 mol/L, ALM compound 5.0 μg/ml): No
Combination Index (Etoposide 1 × 10^−6 mol/L, ALM compound 0.1 μg/ml): No
Combination Index (Etoposide 1 × 10^−6 mol/L, ALM compound 0.5 μg/ml): No
Combination Index (Etoposide 1 × 10^−6 mol/L, ALM compound 1.0 μg/ml): No
Combination Index (Etoposide 1 × 10^−6 mol/L, ALM compound 5.0 μg/ml): No
Combination Index (Etoposide 1 × 10^−7 mol/L, ALM compound 0.1 μg/ml): No
Combination Index (Etoposide 1 × 10^−7 mol/L, ALM compound 0.5 μg/ml): No
Combination Index (Etoposide 1 × 10^−7 mol/L, ALM compound 1.0 μg/ml): No
Combination Index (Etoposide 1 × 10^−7 mol/L, ALM compound 5.0 μg/ml): No
Combination Index (Etoposide 1 × 10^−8 mol/L, ALM compound 0.1 μg/ml): 0.414
Combination Index (Etoposide 1 × 10^−8 mol/L, ALM compound 0.5 μg/ml): 0.910
Combination Index (Etoposide 1 × 10^−8 mol/L, ALM compound 1.0 μg/ml): No
Combination Index (Etoposide 1 × 10^−8 mol/L, ALM compound 5.0 μg/ml): No
Combination Index (Etoposide 1 × 10^−9 mol/L, ALM compound 0.1 μg/ml): 0.318
Combination Index (Etoposide 1 × 10^−9 mol/L, ALM compound 0.5 μg/ml): 0.829
Combination Index (Etoposide 1 × 10^−9 mol/L, ALM compound 1.0 μg/ml): No
Combination Index (Etoposide 1 × 10^−9 mol/L, ALM compound 5.0 μg/ml): No
Combination Index (Etoposide 1 × 10^−10 mol/L, ALM compound 0.1 μg/ml): 0.267
Combination Index (Etoposide 1 × 10^−10 mol/L, ALM compound 0.5 μg/ml): 0.494
Combination Index (Etoposide 1 × 10^−10 mol/L, ALM compound 1.0 μg/ml): No
Combination Index (Etoposide 1 × 10^−10 mol/L, ALM compound 5.0 μg/ml): No
Combination Index (Irinotecan 1 × 10^−3 mol/L, ALM compound 0.1 μg/ml): 1.133
Combination Index (Irinotecan 1 × 10^−3 mol/L, ALM compound 0.5 μg/ml): 0.604
Combination Index (Irinotecan 1 × 10^−3 mol/L, ALM compound 1.0 μg/ml): 0.531
Combination Index (Irinotecan 1 × 10^−3 mol/L, ALM compound 5.0 μg/ml): 0.611
Combination Index (Irinotecan 1 × 10^−4 mol/L, ALM compound 0.1 μg/ml): 0.205
Combination Index (Irinotecan 1 × 10^−4 mol/L, ALM compound 0.5 μg/ml): 0.136
Combination Index (Irinotecan 1 × 10^−4 mol/L, ALM compound 1.0 μg/ml): 0.053
Combination Index (Irinotecan 1 × 10^−4 mol/L, ALM compound 5.0 μg/ml): 0.128
Combination Index (Irinotecan 1 × 10^−5 mol/L, ALM compound 0.1 μg/ml): No
Combination Index (Irinotecan 1 × 10^−5 mol/L, ALM compound 0.5 μg/ml): 0.682
Combination Index (Irinotecan 1 × 10^−5 mol/L, ALM compound 1.0 μg/ml): No
Combination Index (Irinotecan 1 × 10^−5 mol/L, ALM compound 5.0 μg/ml): No
Combination Index (Irinotecan 1 × 10^−6 mol/L, ALM compound 0.1 μg/ml): No
Combination Index (Irinotecan 1 × 10^−6 mol/L, ALM compound 0.5 μg/ml): No
Combination Index (Irinotecan 1 × 10^−6 mol/L, ALM compound 1.0 μg/ml): No
Combination Index (Irinotecan 1 × 10^−6 mol/L, ALM compound 5.0 μg/ml): No
Combination Index (Irinotecan 1 × 10^−7 mol/L, ALM compound 0.1 μg/ml): No
Combination Index (Irinotecan 1 × 10^−7 mol/L, ALM compound 0.5 μg/ml): No
Combination Index (Irinotecan 1 × 10^−7 mol/L, ALM compound 1.0 μg/ml): No
Combination Index (Irinotecan 1 × 10^−7 mol/L, ALM compound 5.0 μg/ml): No
Combination Index (Irinotecan 1 × 10^−8 mol/L, ALM compound 0.1 μg/ml): No
Combination Index (Irinotecan 1 × 10^−8 mol/L, ALM compound 0.5 μg/ml): 0.500
Combination Index (Irinotecan 1 × 10^−8 mol/L, ALM compound 1.0 μg/ml): No
Combination Index (Irinotecan 1 × 10^−8 mol/L, ALM compound 5.0 μg/ml): No
Combination Index (Irinotecan 1 × 10^−9 mol/L, ALM compound 0.1 μg/ml): No
Combination Index (Irinotecan 1 × 10^−9 mol/L, ALM compound 0.5 μg/ml): No
Combination Index (Irinotecan 1 × 10^−9 mol/L, ALM compound 1.0 μg/ml): No
Combination Index (Irinotecan 1 × 10^−9 mol/L, ALM compound 5.0 μg/ml): No
Combination Index (Irinotecan 1 × 10^−10 mol/L, ALM compound 0.1 μg/ml): 0.061
Combination Index (Irinotecan 1 × 10^−10 mol/L, ALM compound 0.5 μg/ml): No
Combination Index (Irinotecan 1 × 10^−10 mol/L, ALM compound 1.0 μg/ml): No
Combination Index (Irinotecan 1 × 10^−10 mol/L, ALM compound 5.0 μg/ml): No
